Where two headings read alike, the source gives them in different places.

The results in this text go back to US20250195530A1, “POLQ INHIBITORS” (ASTRAZENECA AB, priority 2022, published 2025).

The subject of test [1] is DLD-1 BRCA2−/− cells. As to the kind of experiment: Homologous recombination synthetic lethal inhibition of proliferation, DLD-1 BRCA2-/- (Cell Titre Glo 3D). Format: cell-based. The settings on record: Homo sapiens. In short, it runs like this:
(§1)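 Isogenic DLD-1 pair; BRCA2−/− seeded 3,000 cells/mL and read day 12, wt seeded 1,500 cells/mL and read day 7. 10-pt titration (top 10 μM, 3-fold), re-fed with compound day 6, 37 °C/5% CO2. CTG 3D endpoint; IC50 at 50% signal loss.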

Test [2] has as its system DLD-1 cells. As to the kind of experiment: Inhibition of proliferation, DLD-1 BRCA2 wt control (Cell Titre Glo 3D). In kind it is cell-based. The settings on record: Homo sapiens. The method in brief:
as §1

The mark [3] stands for this setting: DLD-1, first proliferation column (c5), DLD-1 BRCA2-/-, read-out: POLQ PD Prolif Lumin (converted).
[4] abbreviates: DLD-1, second proliferation column (c6), DLD-1 BRCA2 wt control, read-out: POLQ PD Prolif Lumin (converted).
The mark [5] stands for this setting: DLD-1, first proliferation column, DLD-1 BRCA2-/-, read-out: POLQ PD Prolif Lumin (converted).
[6] abbreviates: DLD-1, second proliferation column, DLD-1 BRCA2 wt control, read-out: POLQ PD Prolif Lumin (converted).
Setting [7] is: DLD-1, DLD-1 BRCA2 −/−, mean, read-out: POLQ PD Prolif Lumin BRCA2 −/− mean pIC50 (converted).
[8] abbreviates: DLD-1, DLD1 BRCA2 wt, mean, read-out: POLQ PD Prolif Lumin DLD1 mean pIC50 (converted).

On to `CC1(Oc2ncnc3c2nc(-c2ccc(OCCCC(C)(C)C(=O)O)cc2Cl)n3Cc2cccc(Cl)c2)CC1` [Example T563, 5-(3-chloro-4-(9-(3-chlorobenzyl)-6-(1-methylcyclopropoxy)-9H-purin-8-yl)phenoxy)-2,2-dimethylpentanoic acid], for which the IC50 in test [1] (setting [3]) was 0.2 µM; in test [2] (setting [4]) it was 10 µM.
Regarding `CC1(Oc2ncnc3c2nc(-c2ccc(OCCCN4CC[C@@H](O)C4)cc2Cl)n3Cc2cc(C(F)F)ccn2)CC1` [Example T568, (R)-1-(3-(3-chloro-4-(9-((4-(difluoromethyl)pyridin-2-yl)methyl)-6-(1-methylcyclopropoxy)-9H-purin-8-yl)phenoxy)propyl)pyrrolidin-3-ol], the IC50 in test [1] (setting [3]) is 0.794 µM; in test [2] (setting [4]), greater than 10 µM.
`Cc1ccnc(Cn2c(-c3ccc(CC(=O)N4CCC(O)CC4)cc3Cl)nc3c(OC4(C)CC4)ncnc32)c1` [Example T574, 2-(3-chloro-4-(6-(1-methylcyclopropoxy)-9-((4-methylpyridin-2-yl)methyl)-9H-purin-8-yl)phenyl)-1-(4-hydroxypiperidin-1-yl)ethan-1-one]: the IC50 in test [1] (setting [5]) was 1 µM; in test [2] (setting [6]), greater than 10 µM.
`Cc1ccnc(Cn2c(-c3ccc(OCCN4CC5(CCN5)C4)cc3Cl)nc3c(OC4(C)CC4)ncnc32)c1` [Example T587, 8-(4-(2-(1,6-diazaspiro[3.3]heptan-6-yl)ethoxy)-2-chlorophenyl)-6-(1-methylcyclopropoxy)-9-((4-methylpyridin-2-yl)methyl)-9H-purine]: the IC50 in test [1] (setting [5]) was 1 µM; in test [2] (setting [6]), greater than 10 µM.
In the case of `Cc1ccnc(Cn2c(-c3ccc(C(=O)N4CC[C@H](N(C)C)C4)cc3Cl)nc3c(OC4(C)CC4)ncnc32)c1` [Example T588, (S)-(3-chloro-4-(6-(1-methylcyclopropoxy)-9-((4-methylpyridin-2-yl)methyl)-9H-purin-8-yl)phenyl)(3-(dimethylamino)pyrrolidin-1-yl)methanone], the IC50 in test [1] (setting [5]) is 1.26 µM; in test [2] (setting [6]) it was greater than 10 µM.
Turning to `Cc1ccnc(Cn2c(-c3ccc(CC(=O)N4CCCNCC4)cc3Cl)nc3c(OC4(C)CC4)ncnc32)c1` [Example T589, 2-(3-chloro-4-(6-(1-methylcyclopropoxy)-9-((4-methylpyridin-2-yl)methyl)-9H-purin-8-yl)phenyl)-1-(1,4-diazepan-1-yl)ethan-1-one], the IC50 was 1.58 µM in test [1] (setting [5]) and greater than 10 µM in test [2] (setting [6]).
Turning to `Cc1ccnc(Cn2c(-c3ccc(OCCCN4CCCC4)cc3Cl)nc3c(OC4(C)CC4)ncnc32)c1` [Example T590, 8-(2-chloro-4-(3-(pyrrolidin-1-yl)propoxy)phenyl)-6-(1-methylcyclopropoxy)-9-((4-methylpyridin-2-yl)methyl)-9H-purine], the IC50 is 0.251 µM in test [1] (setting [5]) and greater than 10 µM in test [2] (setting [6]).
The corresponding values for `Cc1ccnc(Cn2c(-c3ccc(CCN4CCC(O)CC4)cc3Cl)nc3c(OC4(C)CC4)ncnc32)c1` [Example T591, 1-(3-chloro-4-(6-(1-methylcyclopropoxy)-9-((4-methylpyridin-2-yl)methyl)-9H-purin-8-yl)phenethyl)piperidin-4-ol] are 0.316 µM and greater than 10 µM.
Consider `Cc1ccnc(Cn2c(-c3ccc(OCCCN4CC[C@@H](O)C4)cc3Cl)nc3c(OC4(C)CC4)ncnc32)c1` [Example T592, (R)-1-(3-(3-chloro-4-(6-(1-methylcyclopropoxy)-9-((4-methylpyridin-2-yl)methyl)-9H-purin-8-yl)phenoxy)propyl)pyrrolidin-3-ol], for which the IC50 was 0.2 µM in test [1] (setting [5]) and greater than 10 µM in test [2] (setting [6]).
For `Cc1ccnc(Cn2c(-c3cccc(OCCCN4CC[C@@H](O)C4)c3Cl)nc3c(OC4(C)CC4)ncnc32)c1` [Example T593, (R)-1-(3-(2-chloro-3-(6-(1-methylcyclopropoxy)-9-((4-methylpyridin-2-yl)methyl)-9H-purin-8-yl)phenoxy)propyl)pyrrolidin-3-ol], the IC50 in test [1] (setting [5]) was 0.251 µM; in test [2] (setting [6]), greater than 10 µM.
Consider `Cc1ccnc(Cn2c(-c3ccc(OCCN4CCNC[C@@H]4C)cc3Cl)nc3c(OC4(C)CC4)ncnc32)c1` [Example T594, (S)-8-(2-chloro-4-(2-(2-methylpiperazin-1-yl)ethoxy)phenyl)-6-(1-methylcyclopropoxy)-9-((4-methylpyridin-2-yl)methyl)-9H-purine], for which the IC50 in test [1] (setting [5]) is 0.501 µM; in test [2] (setting [6]), 2.51 µM.
Consider `Cc1cc(C)nc(Cn2c(-c3ccc(OCCN4CCNCC4)cc3Cl)nc3c(OC4(C)CC4)ncnc32)c1` [Example T595, 8-(2-chloro-4-(2-(piperazin-1-yl)ethoxy)phenyl)-9-((4,6-dimethylpyridin-2-yl)methyl)-6-(1-methylcyclopropoxy)-9H-purine], for which the IC50 in test [1] (setting [5]) was 1.26 µM; in test [2] (setting [6]) it was greater than 10 µM.
For the compound `Cc1cnc(Cn2c(-c3ccc(OCCN4CCNCC4)cc3Cl)nc3c(OC4(C)CC4)ncnc32)cc1C` [Example T596, 8-(2-chloro-4-(2-(piperazin-1-yl)ethoxy)phenyl)-9-((4,5-dimethylpyridin-2-yl)methyl)-6-(1-methylcyclopropoxy)-9H-purine], the IC50 was 5.01 µM in test [1] (setting [5]) and greater than 10 µM in test [2] (setting [6]).
For `Cc1ccnc(Cn2c(-c3ccc(OCCN4CCNCC4)cc3Cl)nc3c(OC4(C)CC4)ncnc32)c1C` [Example T597, 8-(2-chloro-4-(2-(piperazin-1-yl)ethoxy)phenyl)-9-((3,4-dimethylpyridin-2-yl)methyl)-6-(1-methylcyclopropoxy)-9H-purine], the figures for the IC50 in test [1] (setting [5]) and in test [2] (setting [6]) were 2.51 µM and 6.31 µM, respectively.
On to `Cc1ccnc(Cn2c(-c3ccc(CC(=O)N4C[C@@H](C)N[C@@H](C)C4)cc3Cl)nc3c(OC4(C)CC4)ncnc32)c1` [Example T606, 2-(3-chloro-4-(6-(1-methylcyclopropoxy)-9-((4-methylpyridin-2-yl)methyl)-9H-purin-8-yl)phenyl)-1-((3R,5S)-3,5-dimethylpiperazin-1-yl)ethan-1-one], for which the IC50 in test [1] (setting [5]) is 0.794 µM; in test [2] (setting [6]), greater than 10 µM.
For `Cc1ccnc(Cn2c(-c3ccc(OCCN4CCNCC4)cc3Cl)nc3c(OC(C)(C)C)cccc32)c1` [Example T609, 4-(tert-butoxy)-2-(2-chloro-4-(2-(piperazin-1-yl)ethoxy)phenyl)-1-((4-methylpyridin-2-yl)methyl)-1H-benzo[d]imidazole], in that order: 1.58 µM and greater than 10 µM.
For the compound `COCc1cc(OCCN2CCN(C)CC2)ccc1-c1nc2c(OC3(C)CC3)ncnc2n1Cc1ccccc1` [Example T612, 9-benzyl-8-(2-(methoxymethyl)-4-(2-(4-methylpiperazin-1-yl)ethoxy)phenyl)-6-(1-methylcyclopropoxy)-9H-purine], the IC50 was 1 µM in test [1] (setting [5]) and greater than 10 µM in test [2] (setting [6]).
As for `C[C@@H](CCOc1ccc(-c2nc3c(OC4(C)CC4)ncnc3n2Cc2cccc(C#N)c2)c(Cl)c1)C(=O)O` [Example U8, (S)-4-(3-chloro-4-(9-(3-cyanobenzyl)-6-(1-methylcyclopropoxy)-9H-purin-8-yl)phenoxy)-2-methylbutanoic acid], the IC50 in test [1] (setting [7]) is 0.398 µM; in test [2] (setting [8]), greater than 6.31 µM.
With `C[C@H](CCOc1ccc(-c2nc3c(OC4(C)CC4)ncnc3n2Cc2cc(Cl)ccc2F)c(Cl)c1)C(=O)O` [Example U10, (R)-4-(3-chloro-4-(9-(5-chloro-2-fluorobenzyl)-6-(1-methylcyclopropoxy)-9H-purin-8-yl)phenoxy)-2-methylbutanoic acid], the IC50 in test [1] (setting [7]) is 0.0631 µM; in test [2] (setting [8]) it was greater than 10 µM.
Take `C[C@@H](CCOc1ccc(-c2nc3c(OC4(C)CC4)ncnc3n2Cc2cc(Cl)ccc2F)c(Cl)c1)C(=O)O` [Example U11, (S)-4-(3-chloro-4-(9-(5-chloro-2-fluorobenzyl)-6-(1-methylcyclopropoxy)-9H-purin-8-yl)phenoxy)-2-methylbutanoic acid]: the IC50 in test [1] (setting [7]) is 0.0501 µM; in test [2] (setting [8]), greater than 6.31 µM.
For `CC1(Oc2ncnc3c2nc(-c2cccc(OCCOCC(=O)O)c2Cl)n3Cc2cc(Cl)ccc2F)CC1` [Example U22, 2-(2-(2-chloro-3-(9-(5-chloro-2-fluorobenzyl)-6-(1-methylcyclopropoxy)-9H-purin-8-yl)phenoxy)ethoxy)acetic acid], in that order: 0.0501 µM and greater than 10 µM.
In the case of `C[C@@H](CCOc1cccc(-c2nc3c(OC4(C)CC4)ncnc3n2Cc2cc(Cl)ccc2F)c1Cl)C(=O)O` [Example U24, (S)-4-(2-chloro-3-(9-(5-chloro-2-fluorobenzyl)-6-(1-methylcyclopropoxy)-9H-purin-8-yl)phenoxy)-2-methylbutanoic acid], the IC50 in test [1] (setting [7]) was 0.0126 µM; in test [2] (setting [8]), greater than 10 µM.
Turning to `C[C@H](CCOc1cccc(-c2nc3c(OC4(C)CC4)ncnc3n2Cc2cc(Cl)ccc2F)c1Cl)C(=O)O` [Example U26, (R)-4-(2-chloro-3-(9-(5-chloro-2-fluorobenzyl)-6-(1-methylcyclopropoxy)-9H-purin-8-yl)phenoxy)-2-methylbutanoic acid], the IC50 in test [1] (setting [7]) was 0.0251 µM; in test [2] (setting [8]), greater than 10 µM.
With `CC(C)(CCOc1cccc(-c2nc3c(OC4(C)CC4)ncnc3n2Cc2cccc(Cl)c2)c1Cl)CC(=O)O` [Example U28, 5-(2-chloro-3-(9-(3-chlorobenzyl)-6-(1-methylcyclopropoxy)-9H-purin-8-yl)phenoxy)-3,3-dimethylpentanoic acid], the IC50 was 0.0794 µM in test [1] (setting [7]) and greater than 10 µM in test [2] (setting [8]).
